Measured values taken from ChEMBL document CHEMBL1697781, “Assessment of the health effects of chemicals in humans: II. Construction of an adverse effects database for QSAR modeling” (Curr Drug Discov Technol, 2004).

What was measured:
Conditions in all cases: human
Hepatotoxicity [1] = experiment: FDA HLAED, liver enzyme composite activity
Hepatotoxicity [2] = experiment: FDA HLAED, gamma-glutamyl transferase (GGT) increase
Hepatotoxicity [3] = experiment: FDA HLAED, serum glutamic pyruvic transaminase (SGPT) increase
Hepatotoxicity [4] = experiment: FDA HLAED, serum glutamic oxaloacetic transaminase (SGOT) increase
Hepatotoxicity [5] = experiment: FDA HLAED, lactate dehydrogenase (LDH) increase
Hepatotoxicity [6] = experiment: FDA HLAED, alkaline phosphatase increase
Wherever GGT Increase - Index Value is given: reference of the scale not given here.
Wherever LDH Increase - Index Value is given: reference of the scale not given here.

COc1ccc(CCN2CCC(Nc3nc4ccccc4n3Cc3ccc(F)cc3)CC2)cc1 [ASTEMIZOLE]
0: Composite Activity - Active (Hepatotoxicity [1]) | Composite Activity - Marginal (Hepatotoxicity [1])
>= 4: GGT Increase - Number of Reports (Hepatotoxicity [2]) | SGPT Increase - Number of Reports (Hepatotoxicity [3]) | SGOT Increase - Number of Reports (Hepatotoxicity [4]) | Alkaline Phosphatase Increase - Number of Reports (Hepatotoxicity [6])
2.6: SGOT Increase - Index Value (Hepatotoxicity [4])
1.2: Alkaline Phosphatase Increase - Index Value (Hepatotoxicity [6])
Inactive: Composite Activity - Score (Hepatotoxicity [1]) | GGT Increase - Activity Score (Hepatotoxicity [2]) | SGPT Increase - Activity Score (Hepatotoxicity [3]) | SGOT Increase - Activity Score (Hepatotoxicity [4]) | LDH Increase - Activity Score (Hepatotoxicity [5]) | Alkaline Phosphatase Increase - Activity Score (Hepatotoxicity [6])
1.4: GGT Increase - Index Value (Hepatotoxicity [2])
< 4: LDH Increase - Number of Reports (Hepatotoxicity [5])
2.8: SGPT Increase - Index Value (Hepatotoxicity [3])
0.4: LDH Increase - Index Value (Hepatotoxicity [5])

C[C@H](CS)C(=O)N1CCC[C@H]1C(=O)O [CAPTOPRIL]
1.5: SGOT Increase - Index Value (Hepatotoxicity [4])
0: Composite Activity - Active (Hepatotoxicity [1]) | Composite Activity - Marginal (Hepatotoxicity [1]) | GGT Increase - Index Value (Hepatotoxicity [2])
>= 4: SGPT Increase - Number of Reports (Hepatotoxicity [3]) | SGOT Increase - Number of Reports (Hepatotoxicity [4]) | Alkaline Phosphatase Increase - Number of Reports (Hepatotoxicity [6])
1.1: Alkaline Phosphatase Increase - Index Value (Hepatotoxicity [6])
Inactive: Composite Activity - Score (Hepatotoxicity [1]) | GGT Increase - Activity Score (Hepatotoxicity [2]) | SGPT Increase - Activity Score (Hepatotoxicity [3]) | SGOT Increase - Activity Score (Hepatotoxicity [4]) | LDH Increase - Activity Score (Hepatotoxicity [5]) | Alkaline Phosphatase Increase - Activity Score (Hepatotoxicity [6])
< 4: GGT Increase - Number of Reports (Hepatotoxicity [2]) | LDH Increase - Number of Reports (Hepatotoxicity [5])
0.4: LDH Increase - Index Value (Hepatotoxicity [5])
0.7: SGPT Increase - Index Value (Hepatotoxicity [3])

C[C@@H]1C[C@H]2[C@@H]3CCC4=CC(=O)C=C[C@]4(C)[C@@]3(Cl)[C@@H](O)C[C@]2(C)[C@@]1(O)C(=O)CCl [MOMETASONE]
0: Composite Activity - Active (Hepatotoxicity [1]) | Composite Activity - Marginal (Hepatotoxicity [1]) | GGT Increase - Index Value (Hepatotoxicity [2]) | SGPT Increase - Index Value (Hepatotoxicity [3]) | SGOT Increase - Index Value (Hepatotoxicity [4]) | LDH Increase - Index Value (Hepatotoxicity [5]) | Alkaline Phosphatase Increase - Index Value (Hepatotoxicity [6])
Inactive: Composite Activity - Score (Hepatotoxicity [1]) | GGT Increase - Activity Score (Hepatotoxicity [2]) | SGPT Increase - Activity Score (Hepatotoxicity [3]) | SGOT Increase - Activity Score (Hepatotoxicity [4]) | LDH Increase - Activity Score (Hepatotoxicity [5]) | Alkaline Phosphatase Increase - Activity Score (Hepatotoxicity [6])
< 4: GGT Increase - Number of Reports (Hepatotoxicity [2]) | SGPT Increase - Number of Reports (Hepatotoxicity [3]) | SGOT Increase - Number of Reports (Hepatotoxicity [4]) | LDH Increase - Number of Reports (Hepatotoxicity [5]) | Alkaline Phosphatase Increase - Number of Reports (Hepatotoxicity [6])

O=C1CN(/N=C/c2ccc([N+](=O)[O-])o2)C(=O)N1 [NITROFURANTOIN]
>= 4: GGT Increase - Number of Reports (Hepatotoxicity [2]) | SGPT Increase - Number of Reports (Hepatotoxicity [3]) | SGOT Increase - Number of Reports (Hepatotoxicity [4]) | LDH Increase - Number of Reports (Hepatotoxicity [5]) | Alkaline Phosphatase Increase - Number of Reports (Hepatotoxicity [6])
16.4: GGT Increase - Index Value (Hepatotoxicity [2])
35.6: LDH Increase - Index Value (Hepatotoxicity [5])
Active: Composite Activity - Score (Hepatotoxicity [1]; Liver) | GGT Increase - Activity Score (Hepatotoxicity [2]) | SGPT Increase - Activity Score (Hepatotoxicity [3]) | SGOT Increase - Activity Score (Hepatotoxicity [4]) | LDH Increase - Activity Score (Hepatotoxicity [5]) | Alkaline Phosphatase Increase - Activity Score (Hepatotoxicity [6])
52: SGOT Increase - Index Value (Hepatotoxicity [4])
32.8: Alkaline Phosphatase Increase - Index Value (Hepatotoxicity [6])
27.4: SGPT Increase - Index Value (Hepatotoxicity [3])
0: Composite Activity - Marginal (Hepatotoxicity [1]; Liver)
5: Composite Activity - Active (Hepatotoxicity [1]; Liver)

CO[C@@]1(NC(=O)C2SC(=C(C(N)=O)C(=O)O)S2)C(=O)N2C(C(=O)O)=C(CSc3nnnn3C)CS[C@@H]21 (some centres not stated) [CEFOTETAN]
0: Composite Activity - Active (Hepatotoxicity [1]) | Composite Activity - Marginal (Hepatotoxicity [1]) | GGT Increase - Index Value (Hepatotoxicity [2]) | SGPT Increase - Index Value (Hepatotoxicity [3]) | SGOT Increase - Index Value (Hepatotoxicity [4]) | LDH Increase - Index Value (Hepatotoxicity [5])
Inactive: Composite Activity - Score (Hepatotoxicity [1]) | GGT Increase - Activity Score (Hepatotoxicity [2]) | SGPT Increase - Activity Score (Hepatotoxicity [3]) | SGOT Increase - Activity Score (Hepatotoxicity [4]) | LDH Increase - Activity Score (Hepatotoxicity [5]) | Alkaline Phosphatase Increase - Activity Score (Hepatotoxicity [6])
0.7: Alkaline Phosphatase Increase - Index Value (Hepatotoxicity [6])
< 4: GGT Increase - Number of Reports (Hepatotoxicity [2]) | SGPT Increase - Number of Reports (Hepatotoxicity [3]) | SGOT Increase - Number of Reports (Hepatotoxicity [4]) | LDH Increase - Number of Reports (Hepatotoxicity [5]) | Alkaline Phosphatase Increase - Number of Reports (Hepatotoxicity [6])

N=C(N)NC(=O)Cc1c(Cl)cccc1Cl [GUANFACINE]
1.3: SGOT Increase - Index Value (Hepatotoxicity [4])
1: Alkaline Phosphatase Increase - Index Value (Hepatotoxicity [6])
< 4: GGT Increase - Number of Reports (Hepatotoxicity [2]) | SGPT Increase - Number of Reports (Hepatotoxicity [3]) | LDH Increase - Number of Reports (Hepatotoxicity [5]) | Alkaline Phosphatase Increase - Number of Reports (Hepatotoxicity [6])
>= 4: SGOT Increase - Number of Reports (Hepatotoxicity [4])
0.3: SGPT Increase - Index Value (Hepatotoxicity [3])
0.6: LDH Increase - Index Value (Hepatotoxicity [5])
Inactive: Composite Activity - Score (Hepatotoxicity [1]) | GGT Increase - Activity Score (Hepatotoxicity [2]) | SGPT Increase - Activity Score (Hepatotoxicity [3]) | SGOT Increase - Activity Score (Hepatotoxicity [4]) | LDH Increase - Activity Score (Hepatotoxicity [5]) | Alkaline Phosphatase Increase - Activity Score (Hepatotoxicity [6])
0: Composite Activity - Active (Hepatotoxicity [1]) | Composite Activity - Marginal (Hepatotoxicity [1]) | GGT Increase - Index Value (Hepatotoxicity [2])

Cn1nnnc1SCC1=C(C(=O)O)N2C(=O)[C@@H](NC(=O)[C@H](O)c3ccccc3)[C@H]2SC1 [CEFAMANDOLE]
0: Composite Activity - Active (Hepatotoxicity [1]) | Composite Activity - Marginal (Hepatotoxicity [1]) | GGT Increase - Index Value (Hepatotoxicity [2]) | SGPT Increase - Index Value (Hepatotoxicity [3]) | SGOT Increase - Index Value (Hepatotoxicity [4]) | LDH Increase - Index Value (Hepatotoxicity [5]) | Alkaline Phosphatase Increase - Index Value (Hepatotoxicity [6])
< 4: GGT Increase - Number of Reports (Hepatotoxicity [2]) | SGPT Increase - Number of Reports (Hepatotoxicity [3]) | SGOT Increase - Number of Reports (Hepatotoxicity [4]) | LDH Increase - Number of Reports (Hepatotoxicity [5]) | Alkaline Phosphatase Increase - Number of Reports (Hepatotoxicity [6])
Inactive: Composite Activity - Score (Hepatotoxicity [1]) | GGT Increase - Activity Score (Hepatotoxicity [2]) | SGPT Increase - Activity Score (Hepatotoxicity [3]) | SGOT Increase - Activity Score (Hepatotoxicity [4]) | LDH Increase - Activity Score (Hepatotoxicity [5]) | Alkaline Phosphatase Increase - Activity Score (Hepatotoxicity [6])

Oc1ccc2c3c1O[C@H]1[C@@H](O)CC[C@@]4(O)[C@@H](C2)N(CC2CCC2)CC[C@]314 [NALBUPHINE]
0: Composite Activity - Active (Hepatotoxicity [1]) | Composite Activity - Marginal (Hepatotoxicity [1]) | GGT Increase - Index Value (Hepatotoxicity [2]) | SGPT Increase - Index Value (Hepatotoxicity [3]) | SGOT Increase - Index Value (Hepatotoxicity [4]) | LDH Increase - Index Value (Hepatotoxicity [5]) | Alkaline Phosphatase Increase - Index Value (Hepatotoxicity [6])
Inactive: Composite Activity - Score (Hepatotoxicity [1]) | GGT Increase - Activity Score (Hepatotoxicity [2]) | SGPT Increase - Activity Score (Hepatotoxicity [3]) | SGOT Increase - Activity Score (Hepatotoxicity [4]) | LDH Increase - Activity Score (Hepatotoxicity [5]) | Alkaline Phosphatase Increase - Activity Score (Hepatotoxicity [6])
< 4: GGT Increase - Number of Reports (Hepatotoxicity [2]) | SGPT Increase - Number of Reports (Hepatotoxicity [3]) | SGOT Increase - Number of Reports (Hepatotoxicity [4]) | LDH Increase - Number of Reports (Hepatotoxicity [5]) | Alkaline Phosphatase Increase - Number of Reports (Hepatotoxicity [6])

CN1CC[C@]23c4c5ccc(O)c4O[C@H]2C(=O)CC[C@H]3[C@H]1C5 [HYDROMORPHONE]
< 4: GGT Increase - Number of Reports (Hepatotoxicity [2]) | SGPT Increase - Number of Reports (Hepatotoxicity [3]) | SGOT Increase - Number of Reports (Hepatotoxicity [4]) | LDH Increase - Number of Reports (Hepatotoxicity [5]) | Alkaline Phosphatase Increase - Number of Reports (Hepatotoxicity [6])
Inactive: Composite Activity - Score (Hepatotoxicity [1]) | GGT Increase - Activity Score (Hepatotoxicity [2]) | SGPT Increase - Activity Score (Hepatotoxicity [3]) | SGOT Increase - Activity Score (Hepatotoxicity [4]) | LDH Increase - Activity Score (Hepatotoxicity [5]) | Alkaline Phosphatase Increase - Activity Score (Hepatotoxicity [6])
0: Composite Activity - Active (Hepatotoxicity [1]) | Composite Activity - Marginal (Hepatotoxicity [1]) | GGT Increase - Index Value (Hepatotoxicity [2]) | SGPT Increase - Index Value (Hepatotoxicity [3]) | SGOT Increase - Index Value (Hepatotoxicity [4]) | LDH Increase - Index Value (Hepatotoxicity [5]) | Alkaline Phosphatase Increase - Index Value (Hepatotoxicity [6])
